Assay results reported in patent publication US9827221B2, “Crystalline solids of a metAP-2 inhibitor and methods of making and using same” (Zafgen, Inc., priority 2010, dated 2017).
≈ marks a conversion by molar mass, not a printed value.

What was measured:
Assay type in all cases: physicochemical
[1] = Solid-form stability of Form C on storage (conversion to Form A)
Experimental: A sample of amorphous material of 6-O-(4-dimethylaminoethoxy)cinnamoyl fumagillol was exposed to vapors of neat trichloroethane at ambient temperature. The amorphous form readily deliquesced. The deliquesced sample was stored in a cold environment and evaporated to dryness using a Genevac centrifuge evaporator. The sample was then sealed, submerged in dry ice for ca. 15 minutes and stored in a freezer ([…]). The sample remained glassy during storage in the freezer (−20° C., 9 days), and was then stored at 5° C. (9 days), resulting in crystalline, Form C (see FIG. 13 for micrograph). A portion of the Form C sample was left at ambient temperature.

[2] = Stability of the crystalline form to grinding (mortar and pestle; PLM, XRPD); settings: ca. 500 mg ground with mortar and pestle for approximately 5 minutes
Experimental: A sample (ca. 500 mg) from the scale-up of crystalline compound as in Example 2 was placed onto a mortar (Agate material, H: 35 mm, L: 77 mm). The sample was then ground using a pestle (length: 80 mm; grinding diameter: 17 mm) for approximately 5 minutes. Throughout the grinding procedure, the sample was allowed to stand for ca. 10 seconds intermittently to ensure that significant heat was not generated. PLM indicated birefrigent material with particle sizes measuring between about 20 μm and 80 μm in length.

[3] = Solubility in diisopropyl ether; settings: organic solvent or mixture
[4] = Solubility in solvent (e.g. aqueous solution that may include a buffer) with pH greater or equal to about 8.0; settings: pH 8, aqueous buffer, ca. 20° C.

Compound	relative stability of the crystalline forms ([1]; Form C relative to Form A)	solid form conversion on storage ([1]; sample left at ambient temperature)	solid form conversion on storage ([1]; sample stored at 5° C.)	crystallinity after grinding (XRPD) [2]	solubility ([3]; 50° C.) [mg/mL]	solubility ([3]; room temperature (ca. 20° C.)) [mg/mL]	solubility [4] [µg/mL]
CO[C@@H]1[C@H](OC(=O)/C=C/c2ccc(OCCN(C)C)cc2)CCC2(CO2)[C@H]1C1(C)OC1CC=C(C)C (stereo partly shown) [Form C, 6-O-(4-dimethylaminoethoxy)cinnamoyl fumagillol]	metastable relative to Form A	converted to Form A after three days	converted to Form A after three days	–	–	–	–
CO[C@@H]1[C@H](OC(=O)/C=C/c2ccc(OCCN(C)C)cc2)CCC2(CO2)[C@H]1C1(C)OC1CC=C(C)C (stereo partly shown) [Form A, 6-O-(4-dimethylaminoethoxy)cinnamoyl fumagillol]	–	–	–	remained highly crystalline	~102 (≈ 204 mM)	~25 (≈ 50 mM)	< 200
